Laboratory results published in patent publication US20240025862A1, “SUBSTITUTED N-PHENYLURACILS AND SALTS THEREOF, AND USE THEREOF AS HERBICIDAL ACTIVE SUBSTANCES” (Bayer Aktiengesellschaft, priority 2020, published 2024).

What was measured:
Type in all cases: in vivo
[1] = test system: Abutilon theophrasti (ABUTH); assay: Post-emergence herbicidal action, greenhouse pot test; conditions: rated visually after about 3 weeks vs untreated controls, 100% = plants have died
Method: (§1) Seeds of monocotyledonous and dicotyledonous weeds and crop plants were placed in sandy loam in plastic or wood-fiber pots, covered with soil and cultivated in a greenhouse under controlled growth conditions. 2 to 3 weeks after sowing, the test plants were treated at the one-leaf stage. The compounds of the invention, formulated in the form of wettable powders (WP) or as emulsion concentrates (EC), were then sprayed onto the green parts of the plants as aqueous suspension or emulsion with addition of 0.5% additive at a water application rate of 600 l/ha (converted). After the test plants had been kept in the greenhouse under optimum growth conditions for about 3 weeks, the activity of the preparations was rated visually in comparison to untreated controls. For example, 100% activity=the plants have died, 0% activity=like control plants.
(§2) Tables A1 to A14 below show the effects of selected compounds of the general formula (I) according to Tables I.1 to I.33 on various harmful plants and at an application rate corresponding to 20 g/ha and less, which were obtained by the experimental method specified above. The appendices “a”, “b” and “c” give differentiation by different dosage with otherwise the same harmful plants tested.

[2] = test system: Amaranthus retroflexus (AMARE); assay: as above; conditions: rated visually after about 3 weeks vs untreated controls, 100% = plants have died
Method: as §1, §2

[3] = test system: Pharbitis purpurea (PHBPU); assay: as above
Method: as §1, §2

[4] = test system: Polygonum convolvulus (POLCO); assay: as above
Method: as §1, §2

Veronica persica (VERPE) = assay: as above
Method: as §1, §2

Viola tricolor (VIOTR) = assay: as above
Method: as §1, §2

[5] = test system: Alopecurus myosuroides (ALOMY); assay: Post-emergence herbicidal action, greenhouse pot test (also comparative test C); conditions: 20 g/ha, rated visually after about 3 weeks vs untreated controls, 100% = plants have died
Method: as §1, §2
(§3) C. Comparative Herbicidal Action and Crop Plant Compatibility of Two Inventive Compounds (I.7-1 and I.7-115) with a Compound of Similar Structure Known from the Literature (WO2002/098227, a-17 and EP1106607, 3-14) in Post-Emergence Treatment.
(§4) Tables C1-C4 below show the effects of two inventive compounds (I.7-1 and I.7-115) together with a compound of similar structure known from the literature (a-17 in WO2002/098227, and 3-14 in EP1106607) in different crop plants at an application rate corresponding to 5 g/ha or less, which have been obtained by the aforementioned experimental procedure.

[6] = test system: Echinochloa crus-galli (ECHCG); assay: as above
Method: as §1, §2, §3, §4

[7] = test system: Matricaria inodora (MATIN); assay: as above
Method: as §1, §2, §3, §4

Setaria viridis (SETVI) = assay: as above; conditions: for Post-emergence action against SETVI: 20 g/ha
Method: as §1, §2, §3, §4

[8] = test system: Triticum aestivum (TRZAS); assay: Post-emergence crop plant compatibility, greenhouse pot test; conditions: vs untreated controls
Method: as §1
(§5) The observed effects on selected crop plants are reported here in comparison to the untreated controls (values in %). The appendices “a”, “b” and “c” give differentiation by different dosage with otherwise the same crop plants tested.

Zea mays (ZEAMX) = assay: as above; conditions: vs untreated controls
Method: as §1, §5

Oryza sativa (ORYSA) = assay: Post-emergence crop plant compatibility, greenhouse pot test (also comparative test C); conditions: for Post-emergence action against ORYSA (crop plant compatibility): vs untreated controls; for Post-emergence action against ORYSA in %: 20 g/ha, crop plant compatibility
Method: as §1, §5, §3

Post-emergence action against TRZAS (crop plant compatibility) ([8]; 1.25 g/ha) [%] | Post-emergence action against TRZAS (crop plant compatibility) ([8]; 5 g/ha) [%] | Compound | Post-emergence action at 5 g/ha against ABUTH in % [1] [%] | Post-emergence action at 20 g/ha against ABUTH in % [1] [%] | Post-emergence action at 1.25 g/ha against AMARE in % [2] [%] | Post-emergence action at 5 g/ha against AMARE in % [2] [%] | Post-emergence action at 20 g/ha against AMARE in % [2] [%] | Post-emergence action against PHBPU in % ([3]; dosage 5 g/ha) [%] | Post-emergence action against PHBPU in % ([3]; dosage 20 g/ha) [%] | Post-emergence action against POLCO in % ([4]; dosage 20 g/ha) [%] | Post-emergence action against VERPE (Veronica persica (VERPE); 5 g/ha) [%] | Post-emergence action against VERPE (Veronica persica (VERPE); 20 g/ha) [%] | Post-emergence action against VIOTR (Viola tricolor (VIOTR); 1.25 g/ha) [%] | Post-emergence action against VIOTR (Viola tricolor (VIOTR); 5 g/ha) [%] | Post-emergence action against VIOTR (Viola tricolor (VIOTR); 20 g/ha) [%] | Post-emergence action at 20 g/ha against ALOMY in % [5] [%] | Post-emergence action against ECHCG in % ([6]; dosage 20 g/ha) [%] | Post-emergence action against MATIN in % ([7]; dosage 20 g/ha) [%] | Post-emergence action against SETVI (Setaria viridis (SETVI)) [%] | Post-emergence action against SETVI in % (Setaria viridis (SETVI); dosage 5 g/ha) [%] | other results
0 | 20 | Cn1c(C(F)(F)F)cc(=O)n(-c2cc(Oc3ccccc3OCC(=O)OCC[N+](=O)[O-])c([N+](=O)[O-])cc2F)c1=O [I.6-183] | 100 | 100 | 100 | 100 | 100 | 100 | 100 | 100 | 100 | 100 | 90 | 100 | 100 | 90 | 80 | 100 | 100 | 100 | Post-emergence action against PHBPU in % ([3]; dosage 1.25 g/ha): 100%; Post-emergence action against MATIN in % ([7]; dosage 5 g/ha): 80%; Post-emergence action against ZEAMX (crop plant compatibility) (Zea mays (ZEAMX); 1.25 g/ha): 20%; Post-emergence action against ZEAMX (crop plant compatibility) (Zea mays (ZEAMX); 5 g/ha): 20%; Post-emergence action against ORYSA (crop plant compatibility) (Oryza sativa (ORYSA); 1.25 g/ha): 0%; Post-emergence action against ORYSA (crop plant compatibility) (Oryza sativa (ORYSA); 5 g/ha): 0%; Post-emergence action against ORYSA in % (Oryza sativa (ORYSA)): 0%
0 | 20 | Cn1c(C(F)(F)F)cc(=O)n(-c2cc(Oc3ccccc3OCC(=O)OCc3cccnc3)c(Cl)cc2F)c1=O [I.7-277] | 100 | 100 | 100 | 100 | 100 | 100 | 100 | 100 | 100 | 100 | 80 | 100 | 100 | 100 | 100 | 100 | 100 | 100 | Post-emergence action at 1.25 g/ha against ABUTH in % [1]: 90%; Post-emergence action against VERPE (Veronica persica (VERPE); 1.25 g/ha): 100%; Post-emergence action against ECHCG in % ([6]; dosage 5 g/ha): 100%; Post-emergence action against MATIN in % ([7]; dosage 5 g/ha): 80%; Post-emergence action against SETVI in % (Setaria viridis (SETVI); dosage 1.25 g/ha): 100%; Post-emergence action against ZEAMX (crop plant compatibility) (Zea mays (ZEAMX); 1.25 g/ha): 0%; Post-emergence action against ORYSA (crop plant compatibility) (Oryza sativa (ORYSA); 1.25 g/ha): 0%; Post-emergence action against ORYSA (crop plant compatibility) (Oryza sativa (ORYSA); 5 g/ha): 0%; Post-emergence action against ORYSA in % (Oryza sativa (ORYSA)): 20%
0 | 10 | COCCOC(=O)COc1ccccc1Oc1cc(-n2c(=O)cc(C(F)(F)F)n(C)c2=O)c(F)cc1C#N [I.9-1] | 100 | 100 | 100 | 100 | 100 | 100 | 100 | 100 | 100 | 100 | 100 | 100 | 100 |  | 100 | 100 | 100 | 100 | Post-emergence action at 1.25 g/ha against ABUTH in % [1]: 100%; Post-emergence action against VERPE (Veronica persica (VERPE); 1.25 g/ha): 100%; Post-emergence action against ECHCG in % ([6]; dosage 5 g/ha): 90%; Post-emergence action against MATIN in % ([7]; dosage 5 g/ha): 80%; Post-emergence action against SETVI in % (Setaria viridis (SETVI); dosage 1.25 g/ha): 80%; Post-emergence action against TRZAS (crop plant compatibility) ([8]; 20 g/ha): 10%; Post-emergence action against ZEAMX (crop plant compatibility) (Zea mays (ZEAMX); 1.25 g/ha): 10%; Post-emergence action against ORYSA (crop plant compatibility) (Oryza sativa (ORYSA); 1.25 g/ha): 0%; Post-emergence action against ORYSA (crop plant compatibility) (Oryza sativa (ORYSA); 5 g/ha): 20%
20 |  | COCCOCCOC(=O)COc1ccc(F)cc1Oc1cc(-n2c(=O)cc(C(F)(F)F)n(C)c2=O)c(F)cc1Cl [I.23-23] | 100 | 100 | 100 | 100 | 100 | 100 | 100 | 100 | 100 | 100 | 100 | 100 | 100 | 100 | 100 | 100 | 100 | 100 | Post-emergence action against PHBPU in % ([3]; dosage 1.25 g/ha): 100%; Post-emergence action against POLCO in % ([4]; dosage 1.25 g/ha): 100%; Post-emergence action against POLCO in % ([4]; dosage 5 g/ha): 100%; Post-emergence action against ECHCG in % ([6]; dosage 5 g/ha): 100%; Post-emergence action against SETVI in % (Setaria viridis (SETVI); dosage 1.25 g/ha): 100%; Post-emergence action against ZEAMX (crop plant compatibility) (Zea mays (ZEAMX); 1.25 g/ha): 20%
20 | 20 | Cn1c(C(F)(F)F)cc(=O)n(-c2cc(Oc3cc(F)ccc3OCC(=O)OCc3ccccn3)c(Cl)cc2F)c1=O [I.23-276] | 100 | 100 | 90 | 100 | 100 | 100 | 100 | 100 | 100 | 100 | 80 | 100 | 100 | 100 | 100 | 90 | 100 | 100 | Post-emergence action at 1.25 g/ha against ABUTH in % [1]: 90%; Post-emergence action against PHBPU in % ([3]; dosage 1.25 g/ha): 90%; Post-emergence action against VERPE (Veronica persica (VERPE); 1.25 g/ha): 80%; Post-emergence action at 1.25 g/ha against ECHCG in % ([6]; 1.25 g/ha, rated visually after about 3 weeks vs untreated controls, 100% = plants have died): 100%; Post-emergence action against ECHCG in % ([6]; dosage 5 g/ha): 100%; Post-emergence action against SETVI in % (Setaria viridis (SETVI); dosage 1.25 g/ha): 100%; Post-emergence action against ORYSA (crop plant compatibility) (Oryza sativa (ORYSA); 1.25 g/ha): 0%; Post-emergence action against ORYSA (crop plant compatibility) (Oryza sativa (ORYSA); 5 g/ha): 10%; Post-emergence action against ORYSA in % (Oryza sativa (ORYSA)): 10%
